The data set in a line: solvent given as SMILES.

In turn, `CC(C)c1cccc(C(C)C)c1N1C(=O)c2ccc3c4c(-c5ccc(C(=O)O)cc5)c5ccc6c7c(cc8c9cc(C(=O)O)ccc9c(c9ccc(c2c39)C1=O)c4c8c57)C(=O)N(c1c(C(C)C)cccc1C(C)C)C6=O` came in with an absorption maximum (in ClCCl) of 607 nm.

Regarding `CCCCC1(CCCC)c2cc(-c3ccc(C=C4C(=O)c5ccccc5C4=O)cc3)ccc2-c2ccc(-c3ccc(C=C4C(=O)c5ccccc5C4=O)cc3)cc21`, the absorption maximum (in C1CCOC1) turned out to be 438 nm; the absorption maximum (in CC(C)=O) is listed as 435 nm; the absorption maximum (in CCCCCC) came to 418 nm; the absorption maximum (in CS(C)=O) came out at 445 nm; the absorption maximum (in Cc1ccccc1) turned out to be 437 nm; the absorption maximum (in ClC(Cl)Cl) was found to be 445 nm.

For `N#CSc1ccc2n1[B-](F)(F)[N+]1=C(N3CCOCC3)C=CC1=C2c1ccccc1`, the absorption maximum is, setting by setting: (in CC#N) 452 nm; (in CCCCCC) 492 nm; (in CCOC(C)=O) 464 nm; (in CO) 458 nm; (in ClCCl) 468 nm.

For the molecule `CCn1c2ccccc2c2cc(-c3cc(-c4ccc5c(c4)c4ccccc4n5CC)nc(N4CCCCC4)n3)ccc21`, the absorption maximum reads like this: (in C1CCOC1) 367 nm; (in CCOC(C)=O) 368 nm; (in CN(C)C=O) 370 nm; (in Cc1ccccc1) 369 nm; (in ClCCl) 371 nm.

Regarding `CCCCN1C(=O)C(=CC=C2N(CCCC)c3ccccc3N2CCCC)C(=O)N(CCCC)C1=S`, the absorption maximum was determined as 470 nm (in CCCCCC); 424 nm (in CCO); 431 nm (in CN(C)C=O); 468 nm (in Cc1ccccc1); 461 nm (in ClC(Cl)Cl); 456 nm (in ClCCl).

Consider `c1cc2ccc3cccc4c(-c5cc(-c6nccs6)nc(-c6nccs6)c5)cc(c1)c2c34`, for which the absorption maximum is, setting by setting: (in CC#N) 367 nm; (in CCCCCC) 344 nm; (in CO) 365 nm; (in ClC(Cl)Cl) 351 nm.

Regarding `CC(C)(C)c1ccc2c(c1)sc1[n+]2[B-](F)(F)n2c(c3cccc4c(Br)ccc2c43)=N1`, the absorption maximum is, setting by setting: (in C1CCOC1) 494 nm; (in CC#N) 488 nm; (in CCCCCC) 490 nm; (in Cc1ccccc1) 498 nm; (in ClCCl) 463 nm.

Take `CC(C)(C)C1Nc2ccccc2C(=O)N1c1ccccc1` (stereo not given): the absorption maximum reads like this: (in CC#N) 348 nm; (in CCCCCCCCCCCCCCCC) 337 nm; (in CO) 356 nm; (in ClC(Cl)Cl) 344 nm; (in c1ccccc1) 343 nm.

For the molecule `Oc1ccccc1/C=N/N=C/c1ccccc1O`, the absorption maximum is, setting by setting: (in CC#N) 355 nm; (in CC(C)CCCC(C)CCCC(C)CCCCC(C)CCCC(C)CCCC(C)C) 363 nm; (in CCCCCC) 361 nm; (in CCCCCCCCC) 362 nm; (in CCCCCCCCCCCCCCCC) 363 nm; (in CCCCl) 359 nm. In addition, the absorption maximum (in CCN(CC)CC) stood at 359 nm; the absorption maximum (in CCO) was found to be 356 nm; the absorption maximum (in CCOCC) is reported as 358 nm; the absorption maximum (in CO) stood at 355 nm; the absorption maximum (in O=C(O)C(F)(F)F) is 398 nm; the absorption maximum (in OC(C(F)(F)F)C(F)(F)F) came to 345 nm. For the same molecule, the absorption maximum was determined as 350 nm (in OCC(F)(F)F) and 357 nm (in OCCO).

`C(=C\c1nc(/C=C/c2ccc(N(c3ccccc3)c3ccccc3)cc2)cc(/C=C/c2ccc(N(c3ccccc3)c3ccccc3)cc2)n1)/c1ccccc1` came in with an absorption maximum (in ClCCl) of 430 nm.

As to `CCCCCCCCCCCCCCCCCCN1C(=O)c2ccc3c4ccc5c6c(ccc(c7ccc(c2c37)C1=O)c64)C(=O)N(CCCCCCCCCCCCCCCCCC)C5=O`, under “in CN(C)C=O”, the absorption maximum stood at 525 nm.

With `CC(C)c1cc(C(C)C)c(B2c3ccccc3Oc3cc(N4c5ccccc5C5(c6ccccc6Oc6ccccc65)c5ccccc54)ccc32)c(C(C)C)c1`, the absorption maximum (in Cc1ccccc1) came out at 429 nm.

On to `Fc1ccc2c(c1)sc1nc(-c3ccccc3)sc12`, for which the absorption maximum (in CS(C)=O) came out at 330 nm.

For the origin of these results see the Deep4Chem optical property database.
